# Measurements: patent US20240391862A1, “(1,4,5-TRISUBSTITUTED-1H-PYRAZOL-3-YL)OXY-2-ALKOXY ALKYL ACIDS AND THEIR DERIVATIVES, THEIR SALTS AND THEIR USE AS HERBICIDAL AGENTS” (Bayer AKtiengesellschaft, priority 2021, published 2024)
# Experiments:
# ALOMY = experiment: Post-emergence herbicidal effect, greenhouse pot test; type: in vivo, Alopecurus myosuroides; conditions: Alopecurus myosuroides, 504 h, visual rating about 3 weeks after treatment, read-out: Post-emergence effect against ALOMY
# How it was run: (§1)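 Greenhouse pot test: weeds and crops sown in sandy loam, sprayed post-emergence at one-leaf stage (2–3 weeks after sowing) with WP or EC formulations plus 0.5% additive at 600 l/ha water, rates 20–320 g/ha. Visual rating about 3 weeks later versus untreated controls (100% = dead, 0% = as control).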
# MATIN = experiment: as above; type: in vivo, Tripleurospermum inodorum; conditions: Tripleurospermum inodorum, 504 h, read-out: Post-emergence effect against MATIN in %
# How it was run: as §1
# AVEFA = experiment: as above; type: in vivo, Avena fatua; conditions: Avena fatua, 504 h, visual rating about 3 weeks after treatment, read-out: Post-emergence effect against AVEFA
# How it was run: as §1
# DIGSA = experiment: as above; type: in vivo, Digitaria sanguinalis; conditions: Digitaria sanguinalis, 504 h, visual rating about 3 weeks after treatment, read-out: Post-emergence effect against DIGSA
# How it was run: as §1
# LOLRI = experiment: as above; type: in vivo, Lolium rigidum; conditions: Lolium rigidum, 504 h, read-out: Post-emergence effect against LOLRI in %
# How it was run: as §1
# POLCO = experiment: as above; type: in vivo, Fallopia convolvulus; conditions: Fallopia convolvulus, 504 h, read-out: Post-emergence effect against POLCO in %
# How it was run: as §1
# VERPE = experiment: as above; type: in vivo, Veronica persica; conditions: Veronica persica, 504 h, read-out: Post-emergence effect against VERPE in %
# How it was run: as §1
# PHBPU = experiment: as above; type: in vivo, Ipomoea purpurea; conditions: Ipomoea purpurea, 504 h, read-out: Post-emergence effect against PHBPU in %
# How it was run: as §1
# ECHCG = experiment: as above; type: in vivo, Echinochloa crus-galli; conditions: Echinochloa crus-galli, 504 h; for pest or weed control at 80 g/ha / pest or weed control at 320 g/ha: read-out: Post-emergence effect against ECHCG in %
# How it was run: as §1
# KCHSC = experiment: as above; type: in vivo; conditions: for pest or weed control at 80 g/ha / pest or weed control at 320 g/ha: 504 h, read-out: Post-emergence effect against KCHSC in %
# How it was run: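 Greenhouse plants in sandy loam, sprayed post-emergence at the one-leaf stage (2–3 weeks after sowing) with WP or EC formulations in water plus 0.5% additive at 600 l/ha. Rates 20 to 320 g/ha. Activity rated visually after about 3 weeks against untreated controls (0% like control, 100% dead).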
# ZEAMX = experiment: Post-emergence herbicidal effect and crop plant compatibility, greenhouse pot test; type: in vivo, Zea mays; conditions: one-leaf stage, rated visually after about 3 weeks vs untreated controls; for plant injury at 20 g/ha / plant injury at 80 g/ha: Zea mays, 504 h; for plant injury at 20 g/ha: read-out: Post-emergence effect at 20 g/ha against ZEAMX in %; for plant injury at 80 g/ha: read-out: Post-emergence effect at 80 g/ha against ZEAMX in %
# How it was run: as §1
# AMARE = experiment: Post-emergence herbicidal effect, greenhouse pot test; type: in vivo, Amaranthus retroflexus; conditions: Amaranthus retroflexus, 504 h, 320 g/ha, visual rating about 3 weeks after treatment, read-out: Post-emergence effect against AMARE
# How it was run: as §1
# VIOTR = experiment: as above; type: in vivo, Viola tricolor; conditions: Viola tricolor, 504 h, read-out: Post-emergence effect against VIOTR in %
# How it was run: as §1
# SETVI = experiment: as above; type: in vivo, Setaria viridis; conditions: Setaria viridis, 504 h, read-out: Post-emergence effect against SETVI in %
# How it was run: as §1
# ABUTH = experiment: as above; type: in vivo, Abutilon theophrasti; conditions: Abutilon theophrasti, 504 h, visual rating about 3 weeks after treatment, read-out: Post-emergence effect against ABUTH
# How it was run: as §1
Compound,pest or weed control at 320 g/ha (ALOMY) [%],pest or weed control at 320 g/ha (MATIN) [%],pest or weed control at 80 g/ha (AVEFA) [%],pest or weed control at 320 g/ha (AVEFA) [%],pest or weed control at 320 g/ha (DIGSA) [%],pest or weed control at 320 g/ha (LOLRI) [%],pest or weed control at 80 g/ha (POLCO) [%],pest or weed control at 320 g/ha (POLCO) [%],pest or weed control at 320 g/ha (VERPE) [%],pest or weed control at 80 g/ha (PHBPU) [%],pest or weed control at 320 g/ha (PHBPU) [%],pest or weed control at 80 g/ha (ECHCG) [%],pest or weed control at 320 g/ha (ECHCG) [%],plant injury at 20 g/ha (ZEAMX) [%],pest or weed control at 320 g/ha (AMARE) [%],pest or weed control at 80 g/ha (VIOTR) [%],pest or weed control at 320 g/ha (VIOTR) [%],pest or weed control at 320 g/ha (SETVI) [%],pest or weed control at 80 g/ha (ABUTH) [%],pest or weed control at 320 g/ha (ABUTH) [%],further results
CCOC(=O)C(OC)Oc1nn(-c2ncccc2F)c(-c2ccc(F)nc2)c1Br (stereo not drawn) [Example I-14],90,90,90,90,90,90,80,80,90,80,90,90,90,0,80,90,90,90,90,90,pest or weed control at 80 g/ha (DIGSA): 80%; pest or weed control at 80 g/ha (LOLRI): 90%; pest or weed control at 80 g/ha (KCHSC; 80 g/ha): 90%; pest or weed control at 320 g/ha (KCHSC; 320 g/ha): 90%
COC(=O)C(OC)Oc1nn(-c2ncccc2F)c(-c2ccc(F)nc2)c1C1CC1 (stereo not drawn) [Example I-40],90,80,80,90,90,90,90,90,90,90,90,90,90,0,80,90,90,90,90,90,pest or weed control at 80 g/ha (LOLRI): 90%; Post-emergence effect against KCHSC in % (KCHSC; 80 g/ha): 90%; Post-emergence effect against KCHSC in % (KCHSC; 320 g/ha): 90%; Post-emergence effect at 320 g/ha against ZEAMX in % (ZEAMX; 320 g/ha): 0%; plant injury at 80 g/ha (ZEAMX): 0%
"COC(=O)C(OC)Oc1nn(-c2ncccc2F)c(-c2ccc(F)nc2)c1C(F)(F)F (stereo not drawn) [Example I-41, Methyl {[1-(3-fluoropyridin-2-yl)-5-(6-fluoropyridin-3-yl)-4-(trifluoromethyl)-1H-pyrazol-3-yl]oxy}(methoxy)acetate]",90,80,80,90,90,90,90,90,90,90,90,,90,0,90,80,90,90,90,90,pest or weed control at 80 g/ha (DIGSA): 80%; pest or weed control at 80 g/ha (KCHSC; 80 g/ha): 80%; pest or weed control at 320 g/ha (KCHSC; 320 g/ha): 90%; plant injury at 80 g/ha (ZEAMX): 0%
CCOC(=O)C(OC)Oc1nn(-c2ncccc2F)c(-c2ccc(F)nc2)c1Cl (stereo not drawn) [Example I-48],90,90,90,90,90,90,80,80,90,90,90,90,90,0,80,90,90,90,80,90,pest or weed control at 80 g/ha (MATIN): 80%; pest or weed control at 80 g/ha (DIGSA): 80%; pest or weed control at 80 g/ha (LOLRI): 90%; pest or weed control at 20 g/ha (POLCO; 20 g/ha): 80%; pest or weed control at 80 g/ha (VERPE): 80%; pest or weed control at 80 g/ha (KCHSC; 80 g/ha): 80%; pest or weed control at 320 g/ha (KCHSC; 320 g/ha): 90%; pest or weed control at 20 g/ha (VIOTR; 20 g/ha): 80%; pest or weed control at 80 g/ha (SETVI): 90%
COC(Oc1nn(-c2ncccc2F)c(-c2cncc(F)c2)c1C1CC1)C(=O)O (stereo not drawn) [Example I-68],90,90,90,90,90,90,80,80,90,90,90,90,90,0,80,90,90,90,80,90,"pest or weed control at 80 g/ha (ALOMY; 80 g/ha): 90%; pest or weed control at 80 g/ha (MATIN): 80%; pest or weed control at 80 g/ha (VERPE): 90%; pest or weed control at 20 g/ha (ECHCG; 20 g/ha, visual rating about 3 weeks after treatment, read-out: Post-emergence effect against ECHCG): 80%; Post-emergence effect against KCHSC in % (KCHSC; 20 g/ha): 90%; pest or weed control at 80 g/ha (KCHSC; 80 g/ha): 90%; pest or weed control at 320 g/ha (KCHSC; 320 g/ha): 90%; pest or weed control at 80 g/ha (SETVI): 90%"
